Measurements taken from US11104648B2, “Pyrazole derivative” (Zhejiang Research Institute of Chemical Industry Co., Ltd., priority 2018, dated 2021).
Read-outs that look alike come from different tables or passages of the source.

How the values were obtained:
Format in all cases: in vivo
[1] = system: Tetranychus cinnabarinus Nymphs; assay: Activity assay of Tetranychus cinnabarinus nymphs (spray on broad bean leaves)
Method in brief: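 Mortality, judged as no response to gentle touch, was scored 48 h after spraying Tetranychus cinnabarinus nymphs on broad bean leaves (eggs from females removed after 24 h). Test solutions: DMF-dissolved compound, ≤10% DMF, in 1‰ Tween 80; 26±2° C., 70%–80% RH, 16 h light; triplicate, blank control.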

[2] = system: Eggs of Tetranychus Cinnabarinus; assay: Activity assay of eggs of Tetranychus cinnabarinus (spray method, ovicidal); details: Tetranychus cinnabarinus, read-out: ovicidal activity; for pest or weed control at 2 µg/mL: concentration 2 mg/L
Method in brief: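 Ovicidal spray test: compound dissolved in DMF, diluted with 1‰ Tween 80 (DMF ≤10%), sprayed on eggs laid during 24 h by females on broad bean leaves. Culture at 26±2° C, 70–80% RH, 16 h photoperiod; non-hatched eggs scored as dead when blank control hatched; three repeats.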

[3] = system: adult Tetranychus cinnabarinus; assay: Activity assay of adult Tetranychus cinnabarinus (whole-plant spray on bean seedlings); details: 48 h, read-out: adult mite-killing activity; for pest or weed control at 1.25 µg/mL: concentration 1.25 mg/L
Method in brief: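 Whole plants sprayed after adult mite inoculation and initial census, using compound dissolved in DMF and made up with 1‰ Tween 80 water (DMF not above 10%). Mortality derived from survivor counts at 48 h after treatment. Each treatment run in triplicate.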

[4] = 48 h, concentration 2.5 mg/L, read-out: nymph-killing activity
[5] = concentration 5 mg/L, spray, non-incubated eggs counted as dead
[6] = 48 h, read-out: nymph-killing activity
[7] = concentration 2.5 mg/L, 48 h, read-out: nymph-killing activity
[8] = 48 h, concentration 2 mg/L, read-out: nymph-killing activity

Row | SMILES | pest or weed control at 2.5 µg/mL [1, 4] [%] | pest or weed control at 5 µg/mL [2, 5] [%] | pest or weed control at 2.5 µg/mL ([3]; concentration 2.5 mg/L) [%] | also measured
1 | CCn1nc(C)c(C)c1/C(OCOC(=O)C(C)(C)C)=C(\C#N)c1ccc(C(C)(C)C)cc1 [Compound 380] | ≥ 95 | ≥ 90 | ≥ 90 | –
2 | CCCCC(=O)OCO/C(=C(/C#N)c1ccc(C(C)(C)C)cc1)c1c(C)c(C)nn1CC [Compound 381] | ≥ 95 | ≥ 90 | ≥ 90 | –
3 | CCn1nc(C)c(C)c1/C(OCOC(=O)CC(C)C)=C(\C#N)c1ccc(C(C)(C)C)cc1 [Compound 382] | ≥ 95 | ≥ 90 | ≥ 90 | –
4 | CCn1nc(C)c(C)c1/C(OCOC(=O)COC)=C(\C#N)c1ccc(C(C)(C)C)cc1 [Compound 383] | ≥ 95 | ≥ 90 | ≥ 90 | –
5 | CCn1nc(C)c(C)c1/C(OCOC(=O)C1CC1)=C(\C#N)c1ccc(C(C)(C)C)cc1 [Compound 384] | ≥ 95 | ≥ 90 | ≥ 90 | –
6 | CCn1nc(C)c(C)c1/C(OCOC(=O)CSC)=C(\C#N)c1ccc(C(C)(C)C)cc1 [Compound 385] | ≥ 95 | ≥ 90 | ≥ 90 | –
7 | CCn1nc(C)c(C)c1/C(OCOC(=O)C1CCCCC1)=C(\C#N)c1ccc(C(C)(C)C)cc1 [Compound 386] | ≥ 95 | ≥ 90 | ≥ 90 | –
8 | CCn1nc(C)c(C)c1/C(OCOC(=O)CF)=C(\C#N)c1ccc(C(C)(C)C)cc1 [Compound 387] | – | – | – | pest or weed control at 2.5 µg/mL [1, 6]: ≥ 95%; pest or weed control at 5 µg/mL [2]: ≥ 90%; pest or weed control at 2.5 µg/mL [3]: ≥ 90%
9 | CCn1nc(C)c(C)c1/C(OCOC(=O)C(F)(F)F)=C(\C#N)c1ccc(C(C)(C)C)cc1 [Compound 388] | ≥ 95 | ≥ 90 | ≥ 90 | –
10 | CCn1nc(C)c(C)c1/C(OCOC(=O)c1ccccc1)=C(\C#N)c1ccc(C(C)(C)C)cc1 [Compound 389] | ≥ 95 | ≥ 90 | ≥ 90 | –
11 | CCn1nc(C)c(C)c1/C(OCOC(=O)Cc1ccccc1)=C(\C#N)c1ccc(C(C)(C)C)cc1 [Compound 390] | – | ≥ 90 | ≥ 90 | pest or weed control at 2.5 µg/mL [1, 7]: ≥ 95%
12 | CCn1nc(C)c(C)c1/C(OCOC(=O)C(C)(C)CC)=C(\C#N)c1ccc(C(C)(C)C)cc1 [Compound 391] | ≥ 95 | ≥ 90 | ≥ 90 | –
13 | C=CC(=O)OCO/C(=C(/C#N)c1ccc(C(C)(C)C)cc1)c1c(C)c(C)nn1CC [Compound 392] | ≥ 95 | ≥ 90 | ≥ 90 | –
14 | CCn1nc(C)c(C)c1/C(OC(C)OC(C)=O)=C(\C#N)c1ccc(C(C)(C)C)cc1 (stereo not drawn) [Compound 401] | ≥ 95 | ≥ 90 | ≥ 90 | pest or weed control at 2 µg/mL [1, 8]: ≥ 90%; pest or weed control at 2 µg/mL ([2]; spray): ≥ 90%; pest or weed control at 1.25 µg/mL [3]: ≥ 90%
15 | CCC(=O)OC(C)O/C(=C(/C#N)c1ccc(C(C)(C)C)cc1)c1c(C)c(C)nn1CC (stereo not drawn) [Compound 402] | ≥ 95 | ≥ 90 | ≥ 90 | pest or weed control at 2 µg/mL [1, 8]: ≥ 90%; pest or weed control at 2 µg/mL ([2]; spray): ≥ 90%; pest or weed control at 1.25 µg/mL [3]: ≥ 90%
16 | CCCC(=O)OC(C)O/C(=C(/C#N)c1ccc(C(C)(C)C)cc1)c1c(C)c(C)nn1CC (stereo not drawn) [Compound 403] | ≥ 95 | ≥ 90 | ≥ 90 | –
17 | CCn1nc(C)c(C)c1/C(OC(C)OC(=O)C(C)C)=C(\C#N)c1ccc(C(C)(C)C)cc1 (stereo not drawn) [Compound 404] | ≥ 95 | ≥ 90 | ≥ 90 | –
18 | CCn1nc(C)c(C)c1/C(OC(C)OC(=O)C(C)(C)C)=C(\C#N)c1ccc(C(C)(C)C)cc1 (stereo not drawn) [Compound 405] | ≥ 95 | ≥ 90 | ≥ 90 | pest or weed control at 2 µg/mL [1, 8]: ≥ 90%; pest or weed control at 2 µg/mL ([2]; spray): ≥ 90%; pest or weed control at 1.25 µg/mL [3]: ≥ 90%
19 | CCCCC(=O)OC(C)O/C(=C(/C#N)c1ccc(C(C)(C)C)cc1)c1c(C)c(C)nn1CC (stereo not drawn) [Compound 406] | ≥ 95 | ≥ 90 | ≥ 90 | –
20 | CCn1nc(C)c(C)c1/C(OC(C)OC(=O)CC(C)C)=C(\C#N)c1ccc(C(C)(C)C)cc1 (stereo not drawn) [Compound 407] | ≥ 95 | ≥ 90 | ≥ 90 | –

Row | SMILES | pest or weed control at 2.5 µg/mL [1, 4] [%] | pest or weed control at 5 µg/mL [2, 5] [%] | pest or weed control at 2.5 µg/mL ([3]; concentration 2.5 mg/L) [%] | also measured
21 | CCn1nc(C)c(C)c1/C(OC(C)OC(=O)COC)=C(\C#N)c1ccc(C(C)(C)C)cc1 (stereo not drawn) [Compound 408] | ≥ 95 | ≥ 90 | ≥ 90 | –
22 | CCn1nc(C)c(C)c1/C(OC(C)OC(=O)C1CC1)=C(\C#N)c1ccc(C(C)(C)C)cc1 (stereo not drawn) [Compound 409] | ≥ 95 | ≥ 90 | ≥ 90 | pest or weed control at 2 µg/mL [1, 8]: ≥ 90%; pest or weed control at 2 µg/mL ([2]; spray): ≥ 90%; pest or weed control at 1.25 µg/mL [3]: ≥ 90%
23 | CCn1nc(C)c(C)c1/C(OC(C)OC(=O)CSC)=C(\C#N)c1ccc(C(C)(C)C)cc1 (stereo not drawn) [Compound 410] | ≥ 95 | ≥ 90 | ≥ 90 | –
24 | CCn1nc(C)c(C)c1/C(OC(C)OC(=O)C1CCCCC1)=C(\C#N)c1ccc(C(C)(C)C)cc1 (stereo not drawn) [Compound 411] | ≥ 95 | ≥ 90 | ≥ 90 | –
25 | CCn1nc(C)c(C)c1/C(OC(C)OC(=O)CF)=C(\C#N)c1ccc(C(C)(C)C)cc1 (stereo not drawn) [Compound 412] | – | – | – | pest or weed control at 2.5 µg/mL [1, 6]: ≥ 95%; pest or weed control at 5 µg/mL [2]: ≥ 90%; pest or weed control at 2.5 µg/mL [3]: ≥ 90%
26 | CCn1nc(C)c(C)c1/C(OC(C)OC(=O)C(F)(F)F)=C(\C#N)c1ccc(C(C)(C)C)cc1 (stereo not drawn) [Compound 413] | ≥ 95 | ≥ 90 | ≥ 90 | –
27 | CCn1nc(C)c(C)c1/C(OC(C)OC(=O)c1ccccc1)=C(\C#N)c1ccc(C(C)(C)C)cc1 (stereo not drawn) [Compound 414] | ≥ 95 | ≥ 90 | ≥ 90 | –
28 | CCn1nc(C)c(C)c1/C(OC(C)OC(=O)Cc1ccccc1)=C(\C#N)c1ccc(C(C)(C)C)cc1 (stereo not drawn) [Compound 415] | – | ≥ 90 | ≥ 90 | pest or weed control at 2.5 µg/mL [1, 7]: ≥ 95%
29 | CCn1nc(C)c(C)c1/C(OC(C)OC(=O)C(C)(C)CC)=C(\C#N)c1ccc(C(C)(C)C)cc1 (stereo not drawn) [Compound 416] | ≥ 95 | ≥ 90 | ≥ 90 | –
30 | C=CC(=O)OC(C)O/C(=C(/C#N)c1ccc(C(C)(C)C)cc1)c1c(C)c(C)nn1CC (stereo not drawn) [Compound 417] | ≥ 95 | ≥ 90 | ≥ 90 | –
31 | COC(=O)OCO/C(=C(/C#N)c1ccc(C(C)(C)C)cc1)c1cc(C)nn1C [Compound 451] | ≥ 95 | ≥ 90 | ≥ 90 | –
32 | CCOC(=O)OCO/C(=C(/C#N)c1ccc(C(C)(C)C)cc1)c1cc(C)nn1C [Compound 452] | ≥ 95 | ≥ 90 | ≥ 90 | –
33 | Cc1cc(/C(OCOC(=O)OC(C)C)=C(\C#N)c2ccc(C(C)(C)C)cc2)n(C)n1 [Compound 454] | ≥ 95 | ≥ 90 | ≥ 90 | –
34 | CCCCOC(=O)OCO/C(=C(/C#N)c1ccc(C(C)(C)C)cc1)c1cc(C)nn1C [Compound 456] | ≥ 95 | ≥ 90 | ≥ 90 | –
35 | Cc1cc(/C(OCOC(=O)OCC(C)C)=C(\C#N)c2ccc(C(C)(C)C)cc2)n(C)n1 [Compound 457] | ≥ 95 | ≥ 90 | ≥ 90 | –
36 | Cc1cc(/C(OCOC(=O)OCCC(C)C)=C(\C#N)c2ccc(C(C)(C)C)cc2)n(C)n1 [Compound 458] | ≥ 95 | ≥ 90 | ≥ 90 | –
37 | CCCCCOC(=O)OCO/C(=C(/C#N)c1ccc(C(C)(C)C)cc1)c1cc(C)nn1C [Compound 460] | ≥ 95 | ≥ 90 | ≥ 90 | –
38 | Cc1cc(/C(OCOC(=O)OCC(F)(F)F)=C(\C#N)c2ccc(C(C)(C)C)cc2)n(C)n1 [Compound 467] | ≥ 95 | ≥ 90 | ≥ 90 | –
39 | COCCOC(=O)OCO/C(=C(/C#N)c1ccc(C(C)(C)C)cc1)c1cc(C)nn1C [Compound 468] | ≥ 95 | ≥ 90 | ≥ 90 | –
40 | CSCCOC(=O)OCO/C(=C(/C#N)c1ccc(C(C)(C)C)cc1)c1cc(C)nn1C [Compound 471] | ≥ 95 | ≥ 90 | ≥ 90 | –
